In the supplement of paper PMC11208160:

Test: recombinant barcode read abundance after kanamycin selection (control-corrected) (log10(CPM+1)); higher = more efficient recombination; sequences stand for … in AGTGCAGAGAAAATCGGCCAGTTTTCTCTGCCTGCAGTCCGCATGCCGT…ATTTATGCAGCGGACTGCCTTTCTCCCAAAGTGATAAACCGGACAGTATCATGGACCGGTTTTCCCGGTAATCCGTATTTGCAAGGTTGGTTTCACT; site = the 11-nt target
Procedure: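 Same pooled E. coli target screen (IS621 bridge recombinase, kanamycin selection, control-corrected CPM, mean of 2 biological replicates). Here the two core-binding nucleotides of the LTG and RTG of the bridge RNA target-binding loop are mutated. Target and donor CT cores are held constant, and the other 9 guide positions match the target. The target is read from the library oligo sequence. Molecule = full bridge RNA written as DNA: nt 1-80 from the library oligo, rest WT scaffold.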

AAACAGTCTTGGGTTCTAACCTGTTGCCTAT [AAACAGTCTAG_LTGcore_CT_RTGcore_AT] (site AAACAGTCTAG) (LTG core: CT, RTG core: AT)
recombinant barcode read abundance (log10): 1.32

AAACAGTCTTGGGTTCTAACCTGTTGCCTCC [AAACAGTCTAG_LTGcore_CT_RTGcore_GG] (site AAACAGTCTAG) (LTG core: CT, RTG core: GG)
recombinant barcode read abundance (log10): 1.4

AAACAGTGATGGGTTCTAACCTGTTGCCTAG [AAACAGTCTAG_LTGcore_GA_RTGcore_CT] (site AAACAGTCTAG) (LTG core: GA, RTG core: CT)
recombinant barcode read abundance (log10): 0.192

AAACAGTGATGGGTTCTAACCTGTTGCCTTC [AAACAGTCTAG_LTGcore_GA_RTGcore_GA] (site AAACAGTCTAG) (LTG core: GA, RTG core: GA)
recombinant barcode read abundance (log10): 0.0385

AAACAGTGGTGGGTTCTAACCTGTTGCCTAG [AAACAGTCTAG_LTGcore_GG_RTGcore_CT] (site AAACAGTCTAG) (LTG core: GG, RTG core: CT)
recombinant barcode read abundance (log10): 0.0371

AAACAGTTGTGGGTTCTAACCTGTTGCCTCA [AAACAGTCTAG_LTGcore_TG_RTGcore_TG] (site AAACAGTCTAG) (LTG core: TG, RTG core: TG)
recombinant barcode read abundance (log10): 0.0424

AAACAGTTTTGGGTTCTAACCTGTTGCCTAG [AAACAGTCTAG_LTGcore_TT_RTGcore_CT] (site AAACAGTCTAG) (LTG core: TT, RTG core: CT)
recombinant barcode read abundance (log10): 0.109

AAACATGAATGGGTTCTAACCTGTTGCCTAG [AAACATGCTAG_LTGcore_AA_RTGcore_CT] (site AAACATGCTAG) (LTG core: AA, RTG core: CT)
recombinant barcode read abundance (log10): 0

AAACATGACTGGGTTCTAACCTGTTGCCTGT [AAACATGCTAG_LTGcore_AC_RTGcore_AC] (site AAACATGCTAG) (LTG core: AC, RTG core: AC)
recombinant barcode read abundance (log10): 0.123

AAACATGCTTGGGTTCTAACCTGTTGCCTAC [AAACATGCTAG_LTGcore_CT_RTGcore_GT] (site AAACATGCTAG) (LTG core: CT, RTG core: GT)
recombinant barcode read abundance (log10): 1.05

AAACATGCTTGGGTTCTAACCTGTTGCCTGC [AAACATGCTAG_LTGcore_CT_RTGcore_GC] (site AAACATGCTAG) (LTG core: CT, RTG core: GC)
recombinant barcode read abundance (log10): 0.756

AAACATGCTTGGGTTCTAACCTGTTGCCTTA [AAACATGCTAG_LTGcore_CT_RTGcore_TA] (site AAACATGCTAG) (LTG core: CT, RTG core: TA)
recombinant barcode read abundance (log10): 0.485

AAACATGCTTGGGTTCTAACCTGTTGCCTTT [AAACATGCTAG_LTGcore_CT_RTGcore_AA] (site AAACATGCTAG) (LTG core: CT, RTG core: AA)
recombinant barcode read abundance (log10): 0.865

AAACATGGGTGGGTTCTAACCTGTTGCCTCC [AAACATGCTAG_LTGcore_GG_RTGcore_GG] (site AAACATGCTAG) (LTG core: GG, RTG core: GG)
recombinant barcode read abundance (log10): 0.137

AAACATGTGTGGGTTCTAACCTGTTGCCTCA [AAACATGCTAG_LTGcore_TG_RTGcore_TG] (site AAACATGCTAG) (LTG core: TG, RTG core: TG)
recombinant barcode read abundance (log10): 0.015

ACGGGACATTGGGTTCTAACCTGTTGCAGAG [ACGGGACCTCT_LTGcore_AT_RTGcore_CT] (site ACGGGACCTCT) (LTG core: AT, RTG core: CT)
recombinant barcode read abundance (log10): 0.0817

ACGGGACCGTGGGTTCTAACCTGTTGCAGAG [ACGGGACCTCT_LTGcore_CG_RTGcore_CT] (site ACGGGACCTCT) (LTG core: CG, RTG core: CT)
recombinant barcode read abundance (log10): 1.86

ACGGGACCTTGGGTTCTAACCTGTTGCAGCA [ACGGGACCTCT_LTGcore_CT_RTGcore_TG] (site ACGGGACCTCT) (LTG core: CT, RTG core: TG)
recombinant barcode read abundance (log10): 0.0129

ACGGGACCTTGGGTTCTAACCTGTTGCAGGT [ACGGGACCTCT_LTGcore_CT_RTGcore_AC] (site ACGGGACCTCT) (LTG core: CT, RTG core: AC)
recombinant barcode read abundance (log10): 0.534

ACGGGACCTTGGGTTCTAACCTGTTGCAGTC [ACGGGACCTCT_LTGcore_CT_RTGcore_GA] (site ACGGGACCTCT) (LTG core: CT, RTG core: GA)
recombinant barcode read abundance (log10): 0.425

ACGGGACGTTGGGTTCTAACCTGTTGCAGAG [ACGGGACCTCT_LTGcore_GT_RTGcore_CT] (site ACGGGACCTCT) (LTG core: GT, RTG core: CT)
recombinant barcode read abundance (log10): 0.463

ACGGGACTATGGGTTCTAACCTGTTGCAGAG [ACGGGACCTCT_LTGcore_TA_RTGcore_CT] (site ACGGGACCTCT) (LTG core: TA, RTG core: CT)
recombinant barcode read abundance (log10): 0.0145

ACGGGACTCTGGGTTCTAACCTGTTGCAGGA [ACGGGACCTCT_LTGcore_TC_RTGcore_TC] (site ACGGGACCTCT) (LTG core: TC, RTG core: TC)
recombinant barcode read abundance (log10): 0

AGGAGGTACTGGGTTCTAACCTGTTGCCTGT [AGGAGGTCTAG_LTGcore_AC_RTGcore_AC] (site AGGAGGTCTAG) (LTG core: AC, RTG core: AC)
recombinant barcode read abundance (log10): 0.183

AGGAGGTATTGGGTTCTAACCTGTTGCCTAT [AGGAGGTCTAG_LTGcore_AT_RTGcore_AT] (site AGGAGGTCTAG) (LTG core: AT, RTG core: AT)
recombinant barcode read abundance (log10): 0.643

AGGAGGTCATGGGTTCTAACCTGTTGCCTAG [AGGAGGTCTAG_LTGcore_CA_RTGcore_CT] (site AGGAGGTCTAG) (LTG core: CA, RTG core: CT)
recombinant barcode read abundance (log10): 0.207

AGGAGGTCATGGGTTCTAACCTGTTGCCTTG [AGGAGGTCTAG_LTGcore_CA_RTGcore_CA] (site AGGAGGTCTAG) (LTG core: CA, RTG core: CA)
recombinant barcode read abundance (log10): 0

AGGAGGTCCTGGGTTCTAACCTGTTGCCTGG [AGGAGGTCTAG_LTGcore_CC_RTGcore_CC] (site AGGAGGTCTAG) (LTG core: CC, RTG core: CC)
recombinant barcode read abundance (log10): 0.227

AGGAGGTCGTGGGTTCTAACCTGTTGCCTCG [AGGAGGTCTAG_LTGcore_CG_RTGcore_CG] (site AGGAGGTCTAG) (LTG core: CG, RTG core: CG)
recombinant barcode read abundance (log10): 0.384

AGGAGGTCTTGGGTTCTAACCTGTTGCCTAC [AGGAGGTCTAG_LTGcore_CT_RTGcore_GT] (site AGGAGGTCTAG) (LTG core: CT, RTG core: GT)
recombinant barcode read abundance (log10): 0.332

AGGAGGTCTTGGGTTCTAACCTGTTGCCTTA [AGGAGGTCTAG_LTGcore_CT_RTGcore_TA] (site AGGAGGTCTAG) (LTG core: CT, RTG core: TA)
recombinant barcode read abundance (log10): 0.446

AGGAGGTCTTGGGTTCTAACCTGTTGCCTTG [AGGAGGTCTAG_LTGcore_CT_RTGcore_CA] (site AGGAGGTCTAG) (LTG core: CT, RTG core: CA)
recombinant barcode read abundance (log10): 0.336

AGGAGGTGATGGGTTCTAACCTGTTGCCTTC [AGGAGGTCTAG_LTGcore_GA_RTGcore_GA] (site AGGAGGTCTAG) (LTG core: GA, RTG core: GA)
recombinant barcode read abundance (log10): 0.218

AGGAGGTGGTGGGTTCTAACCTGTTGCCTCC [AGGAGGTCTAG_LTGcore_GG_RTGcore_GG] (site AGGAGGTCTAG) (LTG core: GG, RTG core: GG)
recombinant barcode read abundance (log10): 0.0671

AGGAGGTGTTGGGTTCTAACCTGTTGCCTAC [AGGAGGTCTAG_LTGcore_GT_RTGcore_GT] (site AGGAGGTCTAG) (LTG core: GT, RTG core: GT)
recombinant barcode read abundance (log10): 0.0506

AGGAGGTTGTGGGTTCTAACCTGTTGCCTAG [AGGAGGTCTAG_LTGcore_TG_RTGcore_CT] (site AGGAGGTCTAG) (LTG core: TG, RTG core: CT)
recombinant barcode read abundance (log10): 0.42

AGGAGGTTGTGGGTTCTAACCTGTTGCCTCA [AGGAGGTCTAG_LTGcore_TG_RTGcore_TG] (site AGGAGGTCTAG) (LTG core: TG, RTG core: TG)
recombinant barcode read abundance (log10): 0.0756

AGGCCTCACTGGGTTCTAACCTGTTGCCTGT [AGGCCTCCTAG_LTGcore_AC_RTGcore_AC] (site AGGCCTCCTAG) (LTG core: AC, RTG core: AC)
recombinant barcode read abundance (log10): 0.113

AGGCCTCAGTGGGTTCTAACCTGTTGCCTAG [AGGCCTCCTAG_LTGcore_AG_RTGcore_CT] (site AGGCCTCCTAG) (LTG core: AG, RTG core: CT)
recombinant barcode read abundance (log10): 0.0227

AGGCCTCATTGGGTTCTAACCTGTTGCCTAG [AGGCCTCCTAG_LTGcore_AT_RTGcore_CT] (site AGGCCTCCTAG) (LTG core: AT, RTG core: CT)
recombinant barcode read abundance (log10): 0.254

AGGCCTCCCTGGGTTCTAACCTGTTGCCTGG [AGGCCTCCTAG_LTGcore_CC_RTGcore_CC] (site AGGCCTCCTAG) (LTG core: CC, RTG core: CC)
recombinant barcode read abundance (log10): 0.146

AGGCCTCCTTGGGTTCTAACCTGTTGCCTAA [AGGCCTCCTAG_LTGcore_CT_RTGcore_TT] (site AGGCCTCCTAG) (LTG core: CT, RTG core: TT)
recombinant barcode read abundance (log10): 0.109

AGGCCTCCTTGGGTTCTAACCTGTTGCCTAC [AGGCCTCCTAG_LTGcore_CT_RTGcore_GT] (site AGGCCTCCTAG) (LTG core: CT, RTG core: GT)
recombinant barcode read abundance (log10): 1.06

AGGCCTCCTTGGGTTCTAACCTGTTGCCTCC [AGGCCTCCTAG_LTGcore_CT_RTGcore_GG] (site AGGCCTCCTAG) (LTG core: CT, RTG core: GG)
recombinant barcode read abundance (log10): 0.102
